Consider 43 molecules from the RepoRT retention time repository (doi:10.1016/j.foodchem.2015.11.070).

This data set can be described thus: Thermo Scientific Hypersil GOLD aQ, 100 × 2.1 mm, 1.9 µm, 30 °C, 0.3 mL/min, estimated dead time 0.73 min; A: water + 0.01% formic acid + 4 mM ammonium formate; B: methanol + 0.01% formic acid + 4 mM ammonium formate; gradient (min/%B) 0/5 1/5 8/100 12/100. Conditions: stereoisomer not certain.
`COP(=O)(OC)Oc1ccc([N+](=O)[O-])cc1`: the LC retention time was 8.12 min. For the molecule `CN(C)c1nc(=O)n(C2CCCCC2)c(=O)n1C`, the LC retention time was 8.61 min.

For the molecule `Cc1cc(C)c(C2=C(OC(=O)CC(C)(C)C)C3(CCCC3)OC2=O)c(C)c1`, the LC retention time is 10.9 min. With `COP(N)(=O)SC` (stereo not drawn) the figure was 1.58 min; with `COc1nn(CSP(=S)(OC)OC)c(=O)s1`, 9.26 min; with `CCOC(=O)c1cn2nc(OP(=S)(OCC)OCC)cc2nc1C`, 10.4 min.

With `COc1cc(OC)nc(NC(=O)NS(=O)(=O)c2ncccc2C(=O)N(C)C)n1`, the LC retention time was 8.01 min.

For the molecule `CNC(=O)Oc1cccc(N=CN(C)C)c1`, the LC retention time is 7.91 min.

With `CC=C(C)C(=O)OC1CC(OC(C)=O)C2(C(=O)OC)COC3C2C12COC(O)(C(=O)OC)C2C(C)(C12OC1(C)C1CC2OC2OC=CC21O)C3O` (stereo not drawn), the LC retention time is 8.67 min. With `CCOP(=S)(OCC)SCSP(=S)(OCC)OCC`, the LC retention time was 10.8 min. In the case of `CCCSP(=S)(OCC)Oc1ccc(SC)cc1` (stereo not drawn), the LC retention time was 11 min. For the molecule `CC(C)C1(C)N=C(c2ncccc2C(=O)O)NC1=O` (stereo not drawn), the LC retention time is 6.79 min. For `CCOP(=S)(OCC)Oc1ccc([N+](=O)[O-])cc1`, the LC retention time is 9.21 min. The same measure for `COC(=O)Nc1cccc(OC(=O)Nc2cccc(C)c2)c1`: 9.23 min; for `CCNc1nc(NC(C)C)nc(SC)n1`: 9.18 min; for `CNC(=O)Oc1cccc2c1OC(C)(C)C2O` (stereo not drawn): 7.11 min. With `CC(C)OC(=O)Nc1ccccc1` the figure was 8.61 min; with `CCOP(=S)(OCC)SCCS(=O)CC` (stereo not drawn), 8.89 min; with `COP(=S)(OC)SCn1nnc2ccccc2c1=O`, 9.38 min. Turning to `O=c1[nH]c2c(c(=O)n1C1CCCCC1)CCC2`, the LC retention time is 9.11 min.

Regarding `CCCCOC(=O)N(C)SN(C)C(=O)Oc1cccc2c1OC(C)(C)C2`, the LC retention time was 10.6 min. Consider `Cc1cc(C2CC2)nc(Nc2ccccc2)n1`, for which the LC retention time is 10.3 min. With `COP(=S)(OC)SCC(=O)N(C)C=O` the figure was 8.06 min; with `CCS(=O)(=O)CCSP(=O)(OC)OC`, 6.13 min; with `CCCOC(=O)NCCCN(C)C`, 5.17 min. With `CNC(=O)ON=C(CS(C)=O)C(C)(C)C` (stereo not drawn) the figure was 6.31 min; with `CNC(=O)ON=C(C)C(C)SC` (stereo not drawn), 7.89 min.

Consider `Cc1ccc(N=CN(C)C=Nc2ccc(C)cc2C)c(C)c1`, for which the LC retention time is 9.09 min. On to `CNC(=O)Oc1ccccc1OC(C)C`, for which the LC retention time is 8.36 min. `CCS(=O)(=O)Cc1ccccc1OC(=O)NC`: the LC retention time was 7 min. Consider `COc1cc2c(c3oc(=O)c4c(c13)CCOC4=O)C1C=COC1O2` (stereo not drawn), for which the LC retention time is 8 min.

As for `CCOP(=O)(NC(C)C)Oc1ccc(S(C)(=O)=O)c(C)c1` (stereo not drawn), the LC retention time was 8.51 min. The same measure for `Cc1ccc(C(C)NC(=O)C(NC(=O)OC(C)C)C(C)C)cc1` (stereo not drawn): 9.73 min; for `CNC(=O)CSP(=O)(OC)OC`: 1.79 min. The same measure for `CC(C)N1C(=O)c2ccccc2NS1(=O)=O`: 8.26 min; for `C#CCOS(=O)OC1CCCCC1Oc1ccc(C(C)(C)C)cc1` (stereo not drawn): 10.9 min. With `COC(=O)C=C(C)OP(=O)(OC)OC` the figure was 7.66 min.

Turning to `CCOC(=O)CC(SP(=S)(OC)OC)C(=O)OCC` (stereo not drawn), the LC retention time was 9.59 min. As for `CNC(=O)ON=C(C)C(C)S(C)=O` (stereo not drawn), the LC retention time is 3.06 min.

Regarding `COP(=S)(OC)SCN1C(=O)c2ccccc2C1=O`, the LC retention time was 9.39 min. Turning to `CCCCOCCOCCOCc1cc2c(cc1CCC)OCO2`, the LC retention time is 10.8 min. With `CNC(=O)Oc1cc(C)c(S(C)(=O)=O)c(C)c1` the figure was 6.96 min; with `CCNc1nc(NCC)nc(SC)n1`, 8.62 min.
